Laboratory results as given in patent publication US8501744B2, “Piperazine compounds” (Amura Therapeutics, Limited, priority 2008, dated 2013).

Target: Human recombinant cathepsin K (Homo sapiens (Human), UniProt P43235)
Assay: In vitro cathepsin Ki inhibition measurements
Type: biochemical
Settings: for Ki: human recombinant cathepsin K, pH 5.5, Z-Leu-Arg-AMC substrate, read-out: In vitro Ki (nM) vs Cath K; for fold improvement in in vitro potency against human cathepsin K: relative to closest prior art compound (42)
Description: Stock solutions of substrate or inhibitor were made up to 10 mM in 100% dimethylsulfoxide (DMSO) (Rathburns, Glasgow, U.K.) and diluted as appropriately required. In all cases the DMSO concentration in the assays was maintained at less than 1% (vol./vol.). The equilibrium inhibition constants (Ki^ss) for each compound were measured under steady-state conditions monitoring enzyme activity as a function of inhibitor concentration. The values were calculated on the assumption of pure competitive behaviour (Cornish-Bowden, A. Fundamentals of enzyme kinetics Portland Press; 1995, 93-128.). Human recombinant cathepsin K (0.25 nM final; B. Turk, Josef, Stefan Institute, Ljubljana, Slovenia), was routinely assayed in 100 mM sodium acetate; pH 5.5 containing 1 mM EDTA, 10 mM L-cysteine and 1.8 μM Z-Leu-Arg-AMC ([S]=KM).
The apparent inhibition constant (Ki) for each compound was determined on the basis that inhibition was reversible and occurred by a pure-competitive mechanism. The Ki values were calculated, from the dependence of enzyme activity as a function of inhibitor concentration, by direct regression analysis (Prism v 3.02) using Equation 2 (Cornish-Bowden, A., 1995.).
In situations where the apparent dissociation constant (Ki^app) approached the enzyme concentrations, the Ki^app values were calculated using a quadratic solution in the form described by Equation 3 (Morrison, J. F. Trends Biochem. Sci., 7, 102-105, 1982; Morrison, J. F. Biochim. Biophys. Acta. 185, 269-286, 1969; Stone, S. R. and Hofsteenge, J. Biochemistry, 25, 4622-4628, 1986).
Curves were fitted by non-linear regression analysis (Prism) using a fixed value for the enzyme concentration. Equation 4 was used to account for the substrate kinetics, where ‘Ki’ is the inhibition constant, ‘[So]’ is the initial substrate concentration and ‘KM^app’ is the apparent macroscopic binding (Michaelis) constant for the substrate (Morrison, 1982).

Chain of Human recombinant cathepsin K (P43235 115-329): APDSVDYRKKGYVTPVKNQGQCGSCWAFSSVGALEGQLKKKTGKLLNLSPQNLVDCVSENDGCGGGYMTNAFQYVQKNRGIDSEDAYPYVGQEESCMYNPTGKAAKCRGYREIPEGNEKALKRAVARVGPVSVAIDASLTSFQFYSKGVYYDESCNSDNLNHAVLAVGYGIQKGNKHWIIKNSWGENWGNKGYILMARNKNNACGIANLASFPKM

SMILES	Ki [nM]	fold improvement in in vitro potency against human cathepsin K [fold]
CC(C)C[C@H](NC(=O)c1ccc(N2CCN(C)CC2)cc1)C(=O)N1C[C@@H](C)[C@H]2OCC(=O)[C@H]21 [Example 1, N—((S)-4-methyl-1-((3aS,6R,6aR)-6-methyl-3-oxodihydro-2H-furo[3,2-b]pyrrol-4(5H,6H,6aH)-yl)-1-oxopentan-2-yl)-4-(4-methylpiperazin-1-yl)benzamide]	2.5	3.5
C[C@@H]1CN(C(=O)[C@@H](NC(=O)c2ccc(N3CCN(C)CC3)cc2)C2CCCC2)[C@@H]2C(=O)CO[C@H]12 [Example 4, N—((S)-1-cyclopentyl-2-((3aS,6R,6aR)-6-methyl-3-oxodihydro-2H-furo[3,2-b]pyrrol-4(5H,6H,6aH)-yl)-2-oxoethyl)-4-(4-methylpiperazin-1-yl)benzamide]	1	8.7
CC(C)C[C@H](NC(=O)c1ccc(N2CCN(C)CC2)cc1)C(=O)N1C[C@H](C)[C@H]2OCC(=O)[C@H]21 [Example 5, N—((S)-4-methyl-1-((3aS,6S,6aR)-6-methyl-3-oxodihydro-2H-furo[3,2-b]pyrrol-4(5H,6H,6aH)-yl)-1-oxopentan-2-yl)-4-(4-methylpiperazin-1-yl)benzamide]	0.75	11.6
C[C@H]1CN(C(=O)[C@@H](NC(=O)c2ccc(N3CCN(C)CC3)cc2)C2CCCC2)[C@@H]2C(=O)CO[C@@H]21 [Example 7, N—((S)-1-cyclopentyl-2-((3aS,6S,6aR)-6-methyl-3-oxodihydro-2H-furo [3,2-b]pyrrol-4(5H,6H,6aH)-yl)-2-oxoethyl)-4-(4-methylpiperazin-1-yl)benzamide]	0.35	24.9
CC(C)C[C@H](NC(=O)c1ccc(N2CCN(C)CC2)cc1)C(=O)N1C[C@@H](C(F)F)[C@H]2OCC(=O)[C@H]21 [Example 8, N—((S)-1-((3aS,6R,6aR)-6-(difluoromethyl)-3-oxodihydro-2H-furo[3,2-b]pyrrol-4(5H,6H,6aH)-yl)-4-methyl-1-oxopentan-2-yl)-4-(4-methylpiperazin-1-yl)benzamide]	1.7	5.7
CC(C)C[C@H](NC(=O)c1ccc(N2CCN(C)CC2)cc1)C(=O)N1C[C@H](C(F)F)[C@H]2OCC(=O)[C@H]21 [Example 12, N—((S)-1-((3aS,6S,6aR)-6-(difluoromethyl)-3-oxodihydro-2H-furo[3,2-b]pyrrol-4(5H,6H,6aH)-yl)-4-methyl-1-oxopentan-2-yl)-4-(4-methylpiperazin-1-yl)benzamide]	0.8	10.9
CC(C)C[C@H](NC(=O)c1ccc(-c2csc(N3CCN(C)CC3)n2)cc1)C(=O)N1C[C@@H](C)[C@H]2OCC(=O)[C@H]21 [Example 16, N—((S)-4-methyl-1-((3aS,6R,6aR)-6-methyl-3-oxodihydro-2H-furo[3,2-b]pyrrol-4(5H,6H,6aH)-yl)-1-oxopentan-2-yl)-4-(2-(4-methylpiperazin-1-yl)thiazol-4-yl)benzamide]	0.7	
CC[C@@H]1CN(C(=O)[C@@H](NC(=O)c2ccc(N3CCN(C)CC3)cc2)C(C)(C)C)[C@@H]2C(=O)CO[C@H]12 [Example 23, N—((S)-1-((3aS,6R,6aR)-6-ethyl-3-oxodihydro-2H-furo[3,2-b]pyrrol-4(5H,6H,6aH)-yl)-3,3-dimethyl-1-oxobutan-2-yl)-4-(4-methylpiperazin-1-yl)benzamide]	4.4	
CC(C)[C@@H]1CN(C(=O)[C@@H](NC(=O)c2ccc(N3CCN(C)CC3)cc2)C(C)(C)C)[C@@H]2C(=O)CO[C@@H]21 [Example 24, N—((S)-1-((3aS,6R,6aH)-6-isopropyl-3-oxodihydro-2H-furo[3,2-b]pyrrol-4(5H,6H,6aH)-yl)-3,3-dimethyl-1-oxobutan-2-yl)-4-(4-methylpiperazin-1-yl)benzamide]	3.2	
CC[C@H]1CN(C(=O)[C@@H](NC(=O)c2ccc(N3CCN(C)CC3)cc2)C(C)(C)C)[C@@H]2C(=O)CO[C@H]12 [Example 25, N—((S)-1-((3aS,6S,6aR)-6-ethyl-3-oxodihydro-2H-furo[3,2-b]pyrrol-4(5H,6H,6aH)-yl)-3,3-dimethyl-1-oxobutan-2-yl)-4-(4-methylpiperazin-1-yl)benzamide]	0.8	
CC(C)[C@H]1CN(C(=O)[C@@H](NC(=O)c2ccc(N3CCN(C)CC3)cc2)C(C)(C)C)[C@@H]2C(=O)CO[C@H]12 [Example 26, N—((S)-1-((3aS,6S,6aR)-6-isopropyl-3-oxodihydro-2H-furo[3,2-b]pyrrol-4 (5H,6H,6aH)-yl)-3,3-dimethyl-1-oxobutan-2-yl)-4-(4-methylpiperazin-1-yl)benzamide]	0.8	
CC[C@@H]1CN(C(=O)[C@@H](NC(=O)c2ccc(N3CCN(C)CC3)cc2)C2CCCC2)[C@@H]2C(=O)CO[C@H]12 [Example 27, N—((S)-1-cyclopentyl-2-((3aS,6R,6aR)-6-ethyl-3-oxodihydro-2H-furo[3,2-b]pyrrol-4(5H,6H,6aH)-yl)-2-oxoethyl)-4-(4-methylpiperazin-1-yl)benzamide]	1.2	7.3
CC(C)[C@@H]1CN(C(=O)[C@@H](NC(=O)c2ccc(N3CCN(C)CC3)cc2)C2CCCC2)[C@@H]2C(=O)CO[C@@H]21 [Example 28, N—((S)-1-cyclopentyl-2-((3aS,6R,6aR)-6-isopropyl-3-oxodihydro-2H-furo [3,2-b]pyrrol-4(5H,6H,6aH)-yl)-2-oxoethyl)-4-(4-methylpiperazin-1-yl)benzamide]	1.5	5.8
CC[C@H]1CN(C(=O)[C@@H](NC(=O)c2ccc(N3CCN(C)CC3)cc2)C2CCCC2)[C@@H]2C(=O)CO[C@H]12 [Example 29, N—((S)-1-cyclopentyl-2-((3aS,6S,6aR)-6-ethyl-3-oxodihydro-2H-furo[3,2-b]pyrrol-4(5H,6H,6aH)-yl)-2-oxoethyl)-4-(4-methylpiperazin-1-yl)benzamide]	0.4	22.9
CC(C)[C@H]1CN(C(=O)[C@@H](NC(=O)c2ccc(N3CCN(C)CC3)cc2)C2CCCC2)[C@@H]2C(=O)CO[C@H]12 [Example 30, N—((S)-1-cyclopentyl-2-((3aS,6S,6aR)-6-isopropyl-3-oxodihydro-2H-furo[3,2-b]pyrrol-4(5H,6H,6aH)-yl)-2-oxoethyl)-4-(4-methylpiperazin-1-yl)benzamide]	0.45	18.9
